Measurements: patent US20060052458A1, “Preventive or remedy for intrauterine late embryonic development or pregnancy toxemia” (KISSEI PHARMACEUTICAL CO., LTD., priority 2003, published 2006)
Marks after values point to notes of the source that are not given here.

Tests used:
[1] = system: rat intrauterine growth retardation model induced by L-NAME; experiment: Confirmation of effects on IUGR (Test Example 1); assay type: in vivo
Text: IUGR model was created as follows in accordance with the method by Yallampalli et al. (Am J Obstet Gynecol, vol. 169: 1316-1320, 1993). A 17th-gestation day rat was anesthetized with ether. Then, the poll was incised approximately 10 mm to transplant in control group an osmotic pressure pump filled with L-NAME, and in the normal group, in the similar manner, an osmotic pressure pump filled with physiological saline in place of L-NAME. To the test group, in addition to the above pump, an osmotic pressure pump filled with bis(2-{[(2S)-2-({(2R)-2-hydroxy-2-[4-hydroxy-3-(2-hydroxyethyl)phenyl]ethyl}amino)-1,2,3,4-tetrahydronaphthalene-7-yl]oxy)-N,N-dimethylacetamide) monosulfate (the compound of the above formula (Ia)) was implanted. On the 20th gestation day, the mother animal was anesthetized with ether, and the fetus was extirpated and weighed. Maternal blood pressure was measured before ether anesthesia on the 17th and 20th gestation days. In statistical analysis, comparisons of control group with normal group or test group were conducted in F-test for variance. When there was equal variance, unpaired t-tests were performed. When there was unequal variance, Welch's test was performed.
Bis(2-{[(2S)-2-({(2R)-2-hydroxy-2-[4-hydroxy-3-(2-hydroxyethyl)phenyl]ethyl}amino)-1,2,3,4-tetrahydronaphthalene-7-yl]oxy}-N,N-dimethylacetamide) sulfate was dissolved in physiological saline and an osmotic pressure pump with the dose of 50 μg/day was inserted, while L-NAME was dissolved in physiological saline to make 50 mg/mL for filling and an osmotic pressure pump with the dose of 12 mg/day was inserted.

[2] = system: rat L-NAME-induced gestational toxicosis model; experiment: Confirmation of effects on gestational toxicosis (Test Example 2); assay type: in vivo
Text: A gestational toxicosis model was created as follows. A 17th -gestation day rat was anesthetized with ether. Then, the poll was incised approximately 10 mm to transplant in control group an osmotic pressure pump filled with L-NAME, and in the normal group, in the similar manner, an osmotic pressure pump filled with physiological saline in place of L-NAME. To the test group, in addition to the above pump, an osmotic pressure pump filled with bis(2-{[(2S)-2-({(2R)-2-hydroxy-2-[4-hydroxy-3-(2-hydroxyethyl)phenyl]ethyl}amino)-1,2,3,4-tetrahydronaphthalene-7-yl]oxy}-N,N-dimethylacetamide) monosulfate (the compound represented by the above formula (Ia)) was implanted. On the 20th gestation day, the mother animal was anesthetized with ether, and the fetus was extirpated. Severity of static gangrene at the tip of fetal extremities was examined, and the amount of maternal urinary albumin and plasma triglyceride level were measured.
While bis(2-{[(2S)-2-({(2R)-2-hydroxy-2-[4-hydroxy-3-(2-hydroxyethyl)phenyl]ethyl)amino)-1,2,3,4-tetrahydronaphthalene-7-yl]oxy)-N,N-dimethylacetamide) monosulfate was dissolved in physiological saline and an osmotic pressure pump with the dose of 200 μg/day was inserted, L-NAME was dissolved in physiological saline to make 200 mg/mL for filling and an osmotic pressure pump with the dose of 48 mg/day was inserted.

[3] = L-NAME 48 mg/day + compound 200 μg/day by osmotic pump from gestation day 17, examined on day 20
[4] = L-NAME 48 mg/day + compound 200 μg/day by osmotic pump, gestation day 20

With CN(C)C(=O)COc1ccc2c(c1)C[C@@H](NC[C@H](O)c1ccc(O)c(CCO)c1)CC2 [formula (Ia), bis(2-{[(2S)-2-({(2R)-2-hydroxy-2-[4-hydroxy-3-(2-hydroxyethyl)phenyl]ethyl}amino)-1,2,3,4-tetrahydronaphthalene-7-yl]oxy}-N,N-dimethylacetamide) monosulfate] the “Change in maternal blood pressure after administration (effect on maternal heart)” value ([1]; 50 μg/day by osmotic pump, gestation days 17 to 20) was “no change in maternal blood pressure”, the “Mean blood pressure of dam” value ([1]; Day 20 of gestation, L-NAME 12 mg/day + compound 50 μg/day by osmotic pump) was 102.5 mmHg and the Fetal body weight ([1]; pregnant rat, L-NAME 12 mg/day + compound 50 μg/day by osmotic pump from gestation day 17, fetus weighed on day 20) was 3550 mg. For the same compound, the “Static gangrene in the tip of extremities (incidence %)” value [2, 3] was 8%, the “The number of static gangrene in the tip of extremities/The number of fetuses” value [2, 3] was 16/203 and the Maternal plasma triglyceride level [2, 4] was 143 µg/mL. The “Maternal urinary albumin level” value [2, 4] was 222.1# μg/mL.
